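48-hour exposure; five concentrations; linearly interpolated endpoints. Abbreviation: GI50, concentration required for 50% inhibition of growth. The concentration for full growth arrest is given as TGI.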
Legend:
Assay in all cases: NCI tumour cell line growth inhibition, 48 h
[1] = test system: 786-0 renal
[2] = test system: HCC-2998 colon
[3] = test system: MDA-N
[4] = test system: SK-OV-3 ovarian
[5] = test system: CAKI-1 renal
[6] = test system: LOX IMVI melanoma
[7] = test system: SR leukemia
[8] = test system: MDA-MB-435
[9] = test system: A498 renal
[10] = test system: OVCAR-3 ovarian
[11] = test system: HOP-92 NSCLC
[12] = test system: DU-145 prostate
[13] = test system: COLO 205 colon
[14] = test system: SN12C renal
[15] = test system: KM12 colon
[16] = test system: K-562 leukemia
[17] = test system: MALME-3M melanoma
[18] = test system: SF-295 CNS
[19] = test system: HS 578T breast
[20] = test system: OVCAR-8 ovarian
[21] = test system: HCT-116 colon
[22] = test system: M14 melanoma
[23] = test system: RXF 393 renal
[24] = test system: SNB-75 CNS
[25] = test system: HCT-15 colon
[26] = test system: NCI/ADR-RES ovarian
[27] = test system: NCI-H460 lung
[28] = test system: CCRF-CEM leukemia
[29] = test system: MOLT-4 leukemia
[30] = test system: PC-3 prostate
[31] = test system: MCF7 breast
[32] = test system: RPMI-8226 leukemia
[33] = test system: T-47D breast
[34] = test system: HL-60(TB) leukemia
[35] = test system: NCI-H23 lung
[36] = test system: NCI-H226 lung
[37] = test system: UO-31 renal
[38] = test system: A549 NSCLC
[39] = test system: SF-539 CNS
[40] = test system: OVCAR-4 ovarian
[41] = test system: U251 CNS
[42] = test system: SK-MEL-2 melanoma
[43] = test system: TK-10 renal
[44] = test system: OVCAR-5 ovarian
[45] = test system: SK-MEL-28 melanoma
[46] = test system: EKVX NSCLC
[47] = test system: UACC-257 melanoma
[48] = test system: ACHN renal
[49] = test system: SNB-19 CNS
[50] = test system: HT29 colon
[51] = test system: SF-268 CNS
[52] = test system: SW-620 colon
[53] = test system: MDA-MB-231 breast
[54] = test system: UACC-62 melanoma
[55] = test system: HOP-62 NSCLC
[56] = test system: IGROV1 ovarian
[57] = test system: SK-MEL-5 melanoma
[58] = test system: BT-549 breast
[59] = test system: NCI-H522 lung

SMILES: O=C(O)c1ccccc1/C=C1/Nc2ccccc2C1=O
- TGI [1]: > 100 µM
- TGI [2]: > 100 µM
- TGI [3]: > 100 µM
- TGI [4]: > 100 µM
- TGI [5]: > 100 µM
- TGI [6]: > 100 µM
- TGI [7]: > 100 µM
- TGI [8]: > 100 µM
- TGI [9]: > 100 µM
- TGI [10]: > 100 µM
- TGI [11]: > 100 µM
- TGI [12]: > 100 µM
- TGI [13]: > 100 µM
- TGI [14]: > 100 µM
- TGI [15]: > 100 µM
- TGI [16]: > 100 µM
- TGI [17]: > 100 µM
- TGI [18]: > 100 µM
- TGI [19]: > 100 µM
- TGI [20]: > 100 µM
- TGI [21]: > 100 µM
- TGI [22]: > 100 µM
- TGI [23]: > 100 µM
- TGI [24]: > 100 µM
- TGI [25]: > 100 µM
- TGI [26]: > 100 µM
- TGI [27]: > 100 µM
- TGI [28]: > 100 µM
- TGI [29]: > 100 µM
- TGI [30]: > 100 µM
- TGI [31]: > 100 µM
- TGI [32]: > 100 µM
- TGI [33]: > 100 µM
- TGI [34]: > 100 µM
- TGI [35]: > 100 µM
- TGI [36]: > 100 µM
- TGI [37]: > 100 µM
- TGI [38]: > 100 µM
- TGI [39]: > 100 µM
- TGI [40]: > 100 µM
- TGI [41]: > 100 µM
- TGI [42]: > 100 µM
- TGI [43]: > 100 µM
- TGI [44]: > 100 µM
- TGI [45]: > 100 µM
- TGI [46]: > 100 µM
- TGI [47]: > 100 µM
- TGI [48]: > 100 µM
- TGI [49]: > 100 µM
- TGI [50]: > 100 µM
- TGI [51]: > 100 µM
- TGI [52]: > 100 µM
- TGI [53]: > 100 µM
- TGI [54]: > 100 µM
- TGI [55]: > 100 µM
- TGI [56]: > 100 µM

SMILES: c1ccc(-c2nn(-c3ccccc3)[n+](-c3ccccc3-c3ccccc3)n2)cc1
- GI50 [1]: 2.96 µM
- TGI [1]: 21.2 µM
- GI50 [2]: 0.94 µM
- TGI [2]: 17.3 µM
- GI50 [4]: 1.29 µM
- TGI [4]: > 29.1 µM
- GI50 [57]: 0.409 µM
- TGI [57]: 2.2 µM
- GI50 [5]: 16.5 µM
- TGI [5]: 89.9 µM
- GI50 [6]: 1.02 µM
- TGI [6]: 18.8 µM
- GI50 [7]: 1.22 µM
- TGI [7]: 10.9 µM
- GI50 [8]: 0.461 µM
- TGI [8]: 2.82 µM
- GI50 [9]: 1.65 µM
- TGI [9]: 9.04 µM
- GI50 [10]: 0.416 µM
- TGI [10]: 15.5 µM
- GI50 [11]: 0.775 µM
- TGI [11]: 5.48 µM
- GI50 [12]: 3.11 µM
- TGI [12]: > 71.7 µM
- GI50 [13]: 0.205 µM
- TGI [13]: 0.856 µM
- GI50 [14]: 1.82 µM
- TGI [14]: 15.5 µM
- GI50 [15]: 0.532 µM
- TGI [15]: 11 µM
- GI50 [16]: 0.456 µM
- TGI [16]: 15.3 µM
- GI50 [17]: 0.248 µM
- TGI [17]: 1.53 µM
- GI50 [18]: 1.94 µM
- TGI [18]: 8.99 µM
- GI50 [19]: 1.88 µM
- TGI [19]: 31.5 µM
- GI50 [20]: 0.757 µM
- TGI [20]: 12.5 µM
- GI50 [21]: 0.699 µM
- TGI [21]: > 33.3 µM
- GI50 [22]: 1.63 µM
- TGI [22]: 16.6 µM
- GI50 [23]: 2.02 µM
- TGI [23]: 16.4 µM
- GI50 [24]: 1.23 µM
- TGI [24]: 19.9 µM
- GI50 [25]: 21.5 µM
- TGI [25]: > 100 µM
- GI50 [26]: > 78.7 µM
- TGI [26]: > 100 µM
- GI50 [27]: 1.04 µM
- TGI [27]: 8.6 µM
- GI50 [58]: 0.461 µM
- TGI [58]: 7.87 µM
- GI50 [28]: 0.743 µM
- TGI [28]: 43.7 µM
- GI50 [29]: 1.8 µM
- TGI [29]: 17.6 µM
- GI50 [30]: 0.37 µM
- TGI [30]: 6.18 µM
- GI50 [31]: 0.462 µM
- TGI [31]: 11.5 µM
- GI50 [32]: 0.251 µM
- TGI [32]: 5.84 µM
- GI50 [33]: 0.974 µM
- TGI [33]: > 42.1 µM
- GI50 [34]: 0.238 µM
- TGI [34]: 0.878 µM
- GI50 [35]: 0.683 µM
- TGI [35]: 8.63 µM
- GI50 [36]: 2.83 µM
- TGI [36]: > 100 µM
- GI50 [37]: 11.6 µM
- TGI [37]: > 77.6 µM
- GI50 [38]: 1.07 µM
- TGI [38]: > 100 µM
- GI50 [39]: 2.03 µM
- TGI [39]: 23.4 µM
- GI50 [40]: 0.382 µM
- TGI [40]: 24.5 µM
- GI50 [41]: 0.533 µM
- TGI [41]: 61.8 µM
- GI50 [42]: 1.8 µM
- TGI [42]: 7.69 µM
- GI50 [43]: 4.35 µM
- TGI [43]: 21.5 µM
- GI50 [44]: 4.19 µM
- TGI [44]: > 100 µM
- GI50 [45]: 2.3 µM
- TGI [45]: 27.2 µM
- GI50 [46]: 0.687 µM
- TGI [46]: > 74.6 µM
- GI50 [47]: 0.339 µM
- TGI [47]: 2.72 µM
- GI50 [48]: 5.38 µM
- TGI [48]: > 100 µM
- GI50 [49]: 1.24 µM
- TGI [49]: > 80.7 µM
- GI50 [59]: 0.478 µM
- TGI [59]: 8.18 µM
- GI50 [50]: 0.673 µM
- TGI [50]: 18.4 µM
- GI50 [51]: 1.71 µM
- TGI [51]: > 47.7 µM
- GI50 [52]: 1.4 µM
- TGI [52]: > 73.1 µM
- GI50 [53]: 0.235 µM
- TGI [53]: 9.21 µM
- GI50 [54]: 0.74 µM
- TGI [54]: 14.9 µM
- GI50 [55]: 2.1 µM
- TGI [55]: > 42.2 µM
- GI50 [56]: 0.868 µM
- TGI [56]: 16.3 µM

From PubChem BioAssay (NCI)
